Where “and” joins values, the source holds several entries; their conditions need not be identical. Equal values may be shown once. Read-outs that look alike come from different tables or passages of the source.
With `C=CC(=O)N1CCC([C@@H]2CCNc3c(C(N)=O)c(-c4ccc(Oc5ccccc5)cc4)nn32)CC1` [zanubrutinib, (S)-7-(1-acryloylpiperidin-4-yl)-2-(4-phenoxyphenyl)-4,5,6,7-tetrahydropyrazolo[1,5-a]pyrimidine-3-carboxamide] the “Anemia AESI ≥Grade 3, EAIR” value (After Coadministration) was 0.18 per 100 person-months, the “Anemia AESI, EAIR” value (After Coadministration) was 0.53 per 100 person-months and the “Atrial fibrillation PT” value (After Coadministration) was 2.8%. For the same molecule, the “Atrial fibrillation and flutter AESI Grade ≥3, EAIR” value (After Coadministration) was 0.18 per 100 person-months, the “Atrial fibrillation and flutter AESI Grade ≥3, patients” value (After Coadministration) was 3.7% and the “Atrial fibrillation and flutter AESI, EAIR” value (After Coadministration) was 0.23 per 100 person-months. For the same molecule, the “Atrial fibrillation and flutter AESI, patients” value (After Coadministration) was 4.7%, the “Atrial flutter PT” value (After Coadministration) was 1.9% and the Basal cell carcinoma (After Coadministration) was 5.6%. For the same molecule, the “Basal cell carcinoma leading to dose interruption” value (After Coadministration) was 1 (0.9%) n (%), the “Basal cell carcinoma ≥Grade 3” value (After Coadministration) was 1 (0.9%) n (%) and the “External ear neoplasm malignant leading to dose interruption” value (After Coadministration) was 0 (0.0%) n (%). For the same molecule, the “Febrile neutropenia PT” value (After Coadministration) was 3.7%, the “Grade 3 or higher AESI” value (After Coadministration) was 48 (44.9) n (%) and the “Haematuria (hemorrhage AESI)” value (After Coadministration) was 4.7%. The “Haematuria (major hemorrhage)” value (After Coadministration) was 0 (0.0%) n (%), the “Haematuria (major hemorrhage) ≥Grade 3” value (After Coadministration) was 0 (0.0%) n (%) and the “Haematuria leading to dose interruption” value (After Coadministration) was 0.0%. For the same molecule, the “Haematuria ≥Grade 3” value (After Coadministration) was 0 (0.0%) n (%), the “Hemorrhage AESI leading to dose interruption” value (After Coadministration) was 2.8% and the “Hemorrhage AESI leading to dose reduction” value (After Coadministration) was 0.9%. The “Hemorrhage AESI ≥Grade 3, EAIR” value (After Coadministration) was 0.09 per 100 person-months, the “Hemorrhage AESI ≥Grade 3, patients” value (After Coadministration) was 1.9% and the “Hemorrhage AESI, EAIR” value (After Coadministration) was 1.39 per 100 person-months. For the same molecule, the “Hemorrhage AESI, patients” value (After Coadministration) was 23.4%, the “Hypertension AESI ≥Grade 3, EAIR” value (After Coadministration) was 0.18 per 100 person-months and the “Hypertension AESI ≥Grade 3, patients” value (After Coadministration) was 3.7%. For the same molecule, the “Hypertension AESI, EAIR” value (After Coadministration) was 0.37 per 100 person-months, the “Hypertension AESI, patients” value (After Coadministration) was 7.5% and the “Infection AESI leading to dose reduction” value (After Coadministration) was 1.9%. For the same molecule, the “Infection AESI leading to treatment discontinuation” value (After Coadministration) was 3.7%, the “Infection AESI ≥Grade 3, EAIR” value (After Coadministration) was 1.45 per 100 person-months and the “Infection AESI, EAIR” value (After Coadministration) was 9.70 per 100 person-months. The “Major hemorrhage AESI leading to dose interruption” value (After Coadministration) was 0.9%, the “Major hemorrhage AESI ≥Grade 3, EAIR” value (After Coadministration) was 0.09 per 100 person-months and the “Major hemorrhage AESI ≥Grade 3, patients” value (After Coadministration) was 1.9%. For the same molecule, the “Major hemorrhage AESI, EAIR” value (After Coadministration) was 0.09 per 100 person-months, the “Major hemorrhage AESI, patients” value (After Coadministration) was 1.9% and the Malignant melanoma (After Coadministration) was 1 (0.9%) n (%). The “Neutropenia AESI leading to dose reduction” value (After Coadministration) was 1.9%, the “Neutropenia AESI leading to treatment interruption” value (After Coadministration) was 6.5% and the “Neutropenia AESI ≥Grade 3, EAIR” value (After Coadministration) was 0.63 per 100 person-months. The “Neutropenia AESI ≥Grade 3, patients” value (After Coadministration) was 20.1%, the “Neutropenia AESI, EAIR” value (After Coadministration) was 0.92 per 100 person-months and the “Neutropenia AESI, patients” value (After Coadministration) was 16.8%. For the same molecule, the “Neutropenic sepsis PT” value (After Coadministration) was 0.0%, the “Neutropenic sepsis ≥Grade 3” value (After Coadministration) was 0.0% and the “Neutrophil count decreased leading to dose reduction” value (After Coadministration) was 0.0%. For the same molecule, the “Opportunistic infection AESI leading to dose reduction” value (After Coadministration) was 0.9%, the “Opportunistic infection AESI leading to treatment discontinuation” value (After Coadministration) was 0.9% and the “Opportunistic infection AESI ≥Grade 3, EAIR” value (After Coadministration) was 0.04 per 100 person-months. For the same molecule, the “Opportunistic infection AESI ≥Grade 3, patients” value (After Coadministration) was 1 (0.9%) n (%), the “Opportunistic infection AESI, EAIR” value (After Coadministration) was 0.13 per 100 person-months and the “Opportunistic infection AESI, patients” value (After Coadministration) was 2.8%. For the same molecule, the “Opportunistic infection SAEs, EAIR” value (After Coadministration) was 0.04 per 100 person-months, the “Patients with at least 1 AESI” value (After Coadministration) was 89 (83.2) n (%) and the “Petechiae (hemorrhage AESI)” value (After Coadministration) was 0.0%. For the same molecule, the “Platelet count decreased PT” value (After Coadministration) was 4.7%, the “Platelet count decreased ≥Grade 3” value (After Coadministration) was 0.9% and the “Purpura (hemorrhage AESI)” value (After Coadministration) was 0.0%. For the same molecule, the “SAEs of opportunistic infections, patients” value (After Coadministration) was 0.9% and 2.8%, the “Second primary malignancies AESI leading to dose interruption” value (After Coadministration) was 5.6% and the “Second primary malignancies AESI leading to treatment discontinuation” value (After Coadministration) was 2.8%. The “Second primary malignancies AESI ≥Grade 3, EAIR” value (After Coadministration) was 0.27 per 100 person-months, the “Second primary malignancies AESI ≥Grade 3, patients” value (After Coadministration) was 5.6% and the “Second primary malignancies AESI, EAIR” value (After Coadministration) was 0.60 per 100 person-months. For the same molecule, the “Second primary malignancies AESI, patients” value (After Coadministration) was 12.1%, the “Serious anemia AESI, EAIR” value (After Coadministration) was 0.04 per 100 person-months and the “Serious atrial fibrillation and flutter AESI, EAIR” value (After Coadministration) was 0.09 per 100 person-months. The “Serious atrial fibrillation and flutter AESI, patients” value (After Coadministration) was 1.9%, the “Serious external ear neoplasm malignant” value (After Coadministration) was 0 (0.0%) n (%) and the Serious haematuria (After Coadministration) was 0 (0.0%) n (%). The “Serious haematuria (major hemorrhage)” value (After Coadministration) was 0 (0.0%) n (%), the “Serious hemorrhage AESI, EAIR” value (After Coadministration) was 0.09 per 100 person-months and the “Serious hemorrhage AESI, patients” value (After Coadministration) was 1.9%. The “Serious infection AESI, EAIR” value (After Coadministration) was 1.15 per 100 person-months, the “Serious major hemorrhage AESI, EAIR” value (After Coadministration) was 0.09 per 100 person-months and the “Serious major hemorrhage AESI, patients” value (After Coadministration) was 1.9%. The “Serious neutropenia AESI, EAIR” value (After Coadministration) was 0.18 per 100 person-months, the “Serious neutropenia AESI, patients” value (After Coadministration) was 3.7% and the Serious neutropenic sepsis (After Coadministration) was 0%. For the same molecule, the “Serious neutrophil count decreased” value (After Coadministration) was 0.0%, the “Serious second primary malignancies AESI, EAIR” value (After Coadministration) was 0.13 per 100 person-months and the “Serious second primary malignancies AESI, patients” value (After Coadministration) was 2.8%. For the same molecule, the “Serious squamous cell carcinoma of skin” value (After Coadministration) was 0 (0.0%) n (%), the “Skin cancer AESI ≥Grade 3, EAIR” value (After Coadministration) was 0.13 per 100 person-months and the “Skin cancer AESI, EAIR” value (After Coadministration) was 0.41 per 100 person-months. The “Skin cancer AESI, patients” value (After Coadministration) was 8.4%, the “Skin cancer SAE, EAIR” value (After Coadministration) was 0.04 per 100 person-months and the “Squamous cell carcinoma of skin” value (After Coadministration) was 0.9%. For the same molecule, the “Squamous cell carcinoma of skin ≥Grade 3” value (After Coadministration) was 1 (0.9%) n (%), the “Thrombocytopenia AESI leading to dose interruption” value (After Coadministration) was 0.0% and the “Thrombocytopenia AESI ≥Grade 3, EAIR” value (After Coadministration) was 0.13 per 100 person-months. The “Thrombocytopenia AESI ≥Grade 3, patients” value (After Coadministration) was 2.8%, the “Thrombocytopenia AESI, EAIR” value (After Coadministration) was 0.41 per 100 person-months and the “Thrombocytopenia AESI, patients” value (After Coadministration) was 8.4%. The “Thrombocytopenia PT” value (After Coadministration) was 3.7%, the “Anemia AESI ≥Grade 3, EAIR” value (During Coadministration) was 1.70 per 100 person-months and the “Anemia AESI, EAIR” value (During Coadministration) was 1.91 per 100 person-months. The “Atrial fibrillation PT” value (During Coadministration) was 1.4%, the “Atrial fibrillation and flutter AESI Grade ≥3, EAIR” value (During Coadministration) was 0.33 per 100 person-months and the “Atrial fibrillation and flutter AESI Grade ≥3, patients” value (During Coadministration) was 1.4%. The “Atrial fibrillation and flutter AESI, EAIR” value (During Coadministration) was 0.33 per 100 person-months, the “Atrial fibrillation and flutter AESI, patients” value (During Coadministration) was 1.4% and the “Atrial flutter PT” value (During Coadministration) was 0.0%. The Basal cell carcinoma (During Coadministration) was 0.0%, the “Basal cell carcinoma leading to dose interruption” value (During Coadministration) was 0 (0.0%) n (%) and the “Basal cell carcinoma ≥Grade 3” value (During Coadministration) was 0 (0.0%) n (%). For the same molecule, the “Epistaxis (hemorrhage AESI)” value (During Coadministration) was 1.4%, the “External ear neoplasm malignant leading to dose interruption” value (During Coadministration) was 1 (0.7%) n (%) and the “Febrile neutropenia PT” value (During Coadministration) was 2.9%. The “Grade 3 or higher AESI” value (During Coadministration) was 36 (26.1) n (%), the “Haematuria (hemorrhage AESI)” value (During Coadministration) was 1.4% and the “Haematuria (major hemorrhage)” value (During Coadministration) was 0 (0.0%) n (%). For the same molecule, the “Haematuria (major hemorrhage) ≥Grade 3” value (During Coadministration) was 0 (0.0%) n (%), the “Haematuria leading to dose interruption” value (During Coadministration) was 0 (0.0%) n (%) and the “Haematuria ≥Grade 3” value (During Coadministration) was 0 (0.0%) n (%). For the same molecule, the “Hemorrhage AESI leading to dose interruption” value (During Coadministration) was 0.7%, the “Hemorrhage AESI ≥Grade 3, EAIR” value (During Coadministration) was 0.16 per 100 person-months and the “Hemorrhage AESI ≥Grade 3, patients” value (During Coadministration) was 0.7%. The “Hemorrhage AESI, EAIR” value (During Coadministration) was 4.04 per 100 person-months, the “Hemorrhage AESI, patients” value (During Coadministration) was 14.5% and the Herpes zoster (During Coadministration) was 2.2%. For the same molecule, the “Hypertension AESI ≥Grade 3, EAIR” value (During Coadministration) was 0.17 per 100 person-months, the “Hypertension AESI ≥Grade 3, patients” value (During Coadministration) was 0.7% and the “Hypertension AESI, EAIR” value (During Coadministration) was 0.70 per 100 person-months. For the same molecule, the “Hypertension AESI, patients” value (During Coadministration) was 2.9%, the “Infection AESI leading to dose reduction” value (During Coadministration) was 1.4% and the “Infection AESI leading to treatment discontinuation” value (During Coadministration) was 4.3%. The “Infection AESI ≥Grade 3, EAIR” value (During Coadministration) was 5.83 per 100 person-months, the “Infection AESI, EAIR” value (During Coadministration) was 16.79 per 100 person-months and the “Major hemorrhage AESI leading to dose interruption” value (During Coadministration) was 0.7%. For the same molecule, the “Major hemorrhage AESI ≥Grade 3, EAIR” value (During Coadministration) was 0.16 per 100 person-months, the “Major hemorrhage AESI ≥Grade 3, patients” value (During Coadministration) was 0.7% and the “Major hemorrhage AESI, EAIR” value (During Coadministration) was 0.16 per 100 person-months. For the same molecule, the “Major hemorrhage AESI, patients” value (During Coadministration) was 0.7%, the Malignant melanoma (During Coadministration) was 0 (0.0%) n (%) and the “Neutropenia AESI leading to dose reduction” value (During Coadministration) was 0.0%. For the same molecule, the “Neutropenia AESI leading to treatment interruption” value (During Coadministration) was 7.2%, the “Neutropenia AESI ≥Grade 3, EAIR” value (During Coadministration) was 3.72 per 100 person-months and the “Neutropenia AESI ≥Grade 3, patients” value (During Coadministration) was 12.3%. For the same molecule, the “Neutropenia AESI, EAIR” value (During Coadministration) was 5.43 per 100 person-months, the “Neutropenia AESI, patients” value (During Coadministration) was 17.4% and the “Neutropenic sepsis PT” value (During Coadministration) was 0.0%. For the same molecule, the “Neutropenic sepsis ≥Grade 3” value (During Coadministration) was 0.0%, the “Neutrophil count decreased leading to dose reduction” value (During Coadministration) was 0.0% and the “Opportunistic infection AESI leading to dose reduction” value (During Coadministration) was 0.7%. The “Opportunistic infection AESI leading to treatment discontinuation” value (During Coadministration) was 0.7%, the “Opportunistic infection AESI ≥Grade 3, EAIR” value (During Coadministration) was 0.50 per 100 person-months and the “Opportunistic infection AESI ≥Grade 3, patients” value (During Coadministration) was 3 (2.2%) n (%).
